Where two headings read alike, the source gives them in different places.
How the values were obtained:
[1] = molecular target: full-length human PLD1 (Homo sapiens (Human), UniProt Q13393); assay: Evaluation of human PLD1 enzyme inhibitory activity (Amplex Red / choline oxidase fluorescence); type: biochemical
Summary of the method: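 Fluorescence read-out couples choline to Amplex Red via choline oxidase and peroxidase after a 60 min room-temperature reaction. Enzyme: FLAG-tagged full-length human PLD1 from Expi293F cells, anti-FLAG purified; substrate diheptanoyl phosphatidylcholine; HEPES pH 7.5 assay buffer with 0.01% NP-40, 0.1% BSA, 5% DMSO final.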

[2] = molecular target: full-length human PLD2 (Homo sapiens (Human), UniProt O14939); assay: Evaluation of human PLD2 enzyme inhibitory activity (Amplex Red / choline oxidase fluorescence); type: biochemical
Summary of the method: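 Released choline was read by Amplex Red fluorescence coupled to choline oxidase and HRP after a 60 min room-temperature reaction. Substrate was diheptanoyl phosphatidylcholine, added as a 6 mmol/L solution, and enzyme was FLAG-tagged full-length human PLD2 from Expi293F, added as a 6 nmol/L solution. Buffer was 50 mM HEPES pH 7.5 with 5% final DMSO.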

[3] = full-length human PLD1 enzyme, read-out: PLD1 IC50
[4] = full-length human PLD2 enzyme, read-out: PLD2 IC50

Sequence of full-length human PLD2 (O14939 whole entry): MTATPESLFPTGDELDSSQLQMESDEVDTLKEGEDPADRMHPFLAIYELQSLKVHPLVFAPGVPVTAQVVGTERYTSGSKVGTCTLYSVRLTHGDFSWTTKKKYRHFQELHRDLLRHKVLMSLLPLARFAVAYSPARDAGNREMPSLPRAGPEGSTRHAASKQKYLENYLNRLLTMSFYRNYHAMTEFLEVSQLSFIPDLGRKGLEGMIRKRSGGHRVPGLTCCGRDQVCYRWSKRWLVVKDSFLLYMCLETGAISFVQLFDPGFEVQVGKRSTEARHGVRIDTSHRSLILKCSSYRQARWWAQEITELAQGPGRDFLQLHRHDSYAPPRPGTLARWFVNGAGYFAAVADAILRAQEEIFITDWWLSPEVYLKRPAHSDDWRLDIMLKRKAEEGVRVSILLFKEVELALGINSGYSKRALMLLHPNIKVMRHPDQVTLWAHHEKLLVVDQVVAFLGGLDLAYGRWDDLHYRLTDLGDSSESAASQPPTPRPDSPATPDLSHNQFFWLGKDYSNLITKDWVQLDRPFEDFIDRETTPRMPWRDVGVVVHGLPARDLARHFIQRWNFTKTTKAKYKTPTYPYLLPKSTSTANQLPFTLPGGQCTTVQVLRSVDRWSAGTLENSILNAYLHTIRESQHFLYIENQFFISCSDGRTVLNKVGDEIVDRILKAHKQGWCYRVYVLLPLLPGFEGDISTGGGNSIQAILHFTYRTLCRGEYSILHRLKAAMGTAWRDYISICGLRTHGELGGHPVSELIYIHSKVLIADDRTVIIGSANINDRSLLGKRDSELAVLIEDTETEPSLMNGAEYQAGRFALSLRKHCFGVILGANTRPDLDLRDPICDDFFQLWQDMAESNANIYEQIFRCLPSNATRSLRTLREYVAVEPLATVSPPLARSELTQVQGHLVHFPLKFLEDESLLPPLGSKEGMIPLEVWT
Sequence of full-length human PLD1 (Q13393 other isoform, or with tags, fused parts or gaps): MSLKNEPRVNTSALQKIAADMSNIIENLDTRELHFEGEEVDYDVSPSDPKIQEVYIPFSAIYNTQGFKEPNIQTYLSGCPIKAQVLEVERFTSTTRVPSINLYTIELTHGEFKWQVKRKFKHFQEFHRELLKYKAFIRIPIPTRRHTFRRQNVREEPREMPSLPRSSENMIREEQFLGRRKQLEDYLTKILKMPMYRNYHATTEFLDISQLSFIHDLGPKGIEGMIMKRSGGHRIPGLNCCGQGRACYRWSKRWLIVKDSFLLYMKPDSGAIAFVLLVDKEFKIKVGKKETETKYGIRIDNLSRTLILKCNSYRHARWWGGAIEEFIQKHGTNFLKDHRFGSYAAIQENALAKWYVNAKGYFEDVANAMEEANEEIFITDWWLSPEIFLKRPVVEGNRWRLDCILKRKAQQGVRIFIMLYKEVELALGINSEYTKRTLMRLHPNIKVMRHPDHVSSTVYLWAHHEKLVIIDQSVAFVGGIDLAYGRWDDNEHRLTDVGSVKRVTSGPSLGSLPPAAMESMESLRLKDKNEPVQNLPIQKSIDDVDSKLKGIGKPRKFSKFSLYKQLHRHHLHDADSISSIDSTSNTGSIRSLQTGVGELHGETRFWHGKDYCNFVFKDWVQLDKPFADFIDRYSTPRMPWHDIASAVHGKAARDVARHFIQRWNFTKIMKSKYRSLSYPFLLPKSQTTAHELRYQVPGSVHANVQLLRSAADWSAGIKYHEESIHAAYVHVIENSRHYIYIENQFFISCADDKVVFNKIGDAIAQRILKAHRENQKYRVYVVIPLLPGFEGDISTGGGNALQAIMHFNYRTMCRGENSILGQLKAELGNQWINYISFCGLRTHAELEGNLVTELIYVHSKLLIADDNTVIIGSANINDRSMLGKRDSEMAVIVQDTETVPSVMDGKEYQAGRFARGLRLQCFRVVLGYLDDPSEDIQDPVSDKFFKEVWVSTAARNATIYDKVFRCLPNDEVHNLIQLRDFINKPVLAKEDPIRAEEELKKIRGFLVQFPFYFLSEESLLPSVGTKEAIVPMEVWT

SMILES: C[C@@H](C[C@H]1CC[C@]2(CC1)OC(=O)NN=C2c1ccc(C#N)cc1Br)NC(=O)N1Cc2ccccc2C1 [Example 109]
- IC50 [1, 3]: 12 nM
- IC50 [2, 4]: < 10 nM

SMILES: Cc1cc(C(=O)N[C@@H](C)CN2CCC3(CC2)OC(=O)NN=C3c2ccc(C#N)cc2Br)[nH]n1 [Example 207]
- IC50 [1, 3]: 25 nM
- IC50 [2, 4]: < 10 nM

SMILES: CNC(=O)C(=O)N[C@@H](C)C[C@]1(O)CC[C@]2(CC1)OC(=O)NN=C2c1ccc(F)cc1Br [Example 319]
- IC50 [1, 3]: 2090 nM
- IC50 [2, 4]: 744 nM

SMILES: Cc1cc(C(=O)N[C@@H](C)C[C@H]2CC[C@]3(CC2)OC(=O)NN=C3c2ccc(C#N)cc2C)[nH]n1 [Example 153]
- IC50 [1, 3]: 27 nM
- IC50 [2, 4]: 28 nM

SMILES: C[C@@H](C[C@H]1CC[C@]2(CC1)OC(=O)NN=C2c1ccc(F)cc1Br)NC(=O)C(F)F [Example 211]
- IC50 [1, 3]: 102 nM
- IC50 [2, 4]: 429 nM

SMILES: [2H]C([2H])([2H])NC(=O)C(=O)N[C@@H](C)C[C@]1(OC)CC[C@@]2(CC1)OC(=O)NN=C2c1cc(F)ccc1Br [Example 2-131]
- IC50 ([1]; column 1 of continuation tables 2-12 to 2-14, read-out: human PLD1 enzyme inhibitory activity IC50): 15 nM
- IC50 ([2]; column 2 of continuation tables 2-12 to 2-14, read-out: human PLD2 enzyme inhibitory activity IC50): < 10 nM

SMILES: CONC(=O)N[C@@H](C)C[C@H]1CC[C@]2(CC1)OC(=O)NN=C2c1ccc(F)cc1I [Example 208]
- IC50 [1, 3]: 45 nM
- IC50 [2, 4]: 224 nM

SMILES: CNC(=O)C(=O)N[C@@H](C)CN1CCC2(CC1)OC(=O)NN=C2c1cccc(C(F)(F)F)c1Br [Example 2-051]
- IC50 [1, 3]: 25 nM
- IC50 [2, 4]: < 10 nM

SMILES: CNC(=O)C(=O)N[C@@H](C)C[C@H]1CC[C@]2(CC1)OC(=O)NN=C2c1cnc(C(N)=O)cc1C [Example 187]
- IC50 [1, 3]: 222 nM
- IC50 [2, 4]: 455 nM

SMILES: CNC1(C(=O)N[C@@H](C)C[C@H]2CC[C@]3(CC2)OC(=O)NN=C3c2ccc(F)cc2Br)COC1 [Example 124]
- IC50 [1, 3]: 638 nM
- IC50 [2, 4]: 2740 nM

SMILES: CNC(=O)C(=O)N[C@@H](C)[C@H](C)N1CCC2(CC1)OC(=O)NN=C2c1ccc(F)cc1Br [Example 289]
- IC50 [1, 3]: 18 nM
- IC50 [2, 4]: < 10 nM

SMILES: C[C@@H](C[C@H]1CC[C@]2(CC1)OC(=O)NN=C2c1cc(C(C)(C)O)ccc1Br)NC(=O)C(=O)NC1CC1 [Example 2-045]
- IC50 [1, 3]: 18 nM
- IC50 [2, 4]: < 10 nM

SMILES: C[C@@H](CN1CCC2(CC1)OC(=O)NN=C2c1cc(C#N)ccc1Br)NC(=O)c1cncn1C [Example 2-053]
- IC50 [1, 3]: 676 nM
- IC50 [2, 4]: 245 nM

SMILES: CNC(=O)C(=O)N[C@@H](C)C[C@H]1CC[C@]2(CC1)OC(=O)NN=C2c1cn(CC(F)F)nc1I [Example 2-058]
- IC50 [1, 3]: 26 nM
- IC50 [2, 4]: 66 nM

SMILES: CNC(=O)C(=O)N[C@@H](C)C[C@H]1CC[C@]2(CC1)OC(=O)NN=C2c1ccc(OC(F)F)cc1Br [Example 140]
- IC50 [1, 3]: < 10 nM
- IC50 [2, 4]: < 10 nM

SMILES: C[C@@H](C[C@H]1CC[C@]2(CC1)OC(=O)NN=C2c1cccc2c1OCC2)NC(=O)c1cc(Cl)no1 [Example 108]
- IC50 [1, 3]: 25 nM
- IC50 [2, 4]: 38 nM

SMILES: Cc1cc(C(=O)N[C@@H](C)C[C@H]2CC[C@]3(CC2)OC(=O)NN=C3c2cc(OCC(F)(F)F)ccc2Br)[nH]n1 [Example 298]
- IC50 [1, 3]: 15 nM
- IC50 [2, 4]: < 10 nM

SMILES: CNC(=O)C(=O)N[C@@H](C)C[C@H]1CC[C@]2(CC1)OC(=O)NN=C2c1cccc(C)c1C [Example 129]
- IC50 [1, 3]: 18 nM
- IC50 [2, 4]: < 10 nM

SMILES: CNC(=O)C(=O)N[C@@H](C)C[C@H]1CC[C@]2(CC1)OC(=O)NN=C2c1ccc(F)cc1C(C)C [Example 133]
- IC50 [1, 3]: 29 nM
- IC50 [2, 4]: 31 nM

SMILES: CNC(=O)C(=O)N[C@@H](C)C[C@H]1CC[C@]2(CC1)OC(=O)NN=C2c1cnc(N2C[C@H]3C[C@@H]2CO3)cc1C [Example 267]
- IC50 [1, 3]: 26 nM
- IC50 [2, 4]: < 10 nM

SMILES: C[C@@H](C[C@H]1CC[C@]2(CC1)OC(=O)NN=C2c1ccc(F)cc1Br)NC(=O)C1(F)CC1 [Example 35]
- IC50 [1, 3]: 257 nM
- IC50 [2, 4]: 367 nM

SMILES: C[C@@H](C[C@H]1CC[C@]2(CC1)OC(=O)NN=C2c1ccc(F)cc1Br)NC(=O)c1cc(C(F)(F)F)n[nH]1 [Example 72]
- IC50 [1, 3]: 34 nM
- IC50 [2, 4]: 24 nM

SMILES: Cc1cc(C(=O)N[C@@H](C)C[C@H]2CC[C@]3(CC2)OC(=O)NN=C3c2ccc(F)cc2Br)[nH]n1 [Example 12]
- IC50 [1, 3]: < 10 nM
- IC50 [2, 4]: < 10 nM

SMILES: CNC(=O)C(=O)N[C@@H](C)C[C@H]1CC[C@]2(CC1)OC(=O)NN=C2c1cc(Br)ccc1C [Example 212]
- IC50 [1, 3]: < 10 nM
- IC50 [2, 4]: < 10 nM

SMILES: Cc1cc(C(=O)N[C@@H](C)[C@H](C)N2CCC3(CC2)OC(=O)NN=C3c2ccc(F)cc2Br)[nH]n1 [Example 288]
- IC50 [1, 3]: 26 nM
- IC50 [2, 4]: < 10 nM

Source: patent publication US20240101572A1, “DIHYDROOXADIAZINONE COMPOUND AND PHARMACEUTICAL USE THEREOF” (Japan Tobacco Inc., priority 2022, published 2024)
